Patent US9187768B2, “Alcoholic fermentation yeast and method for producing ethanol using same” (NIPPON STEEL & SUMIKIN ENGINEERING CO., LTD., priority 2010, dated 2015)

Test system: general yeast
Experiment: Ethanol fermentation by a general yeast with limonene added to YPD culture medium
Assay type: cell-based, Saccharomyces Cerevisiae
Conditions: 0.1% v/v of limonene added
Excerpt: Generally, yeast is present in a sugar solution as fine solid particles and easily adsorbs oily substances. Therefore, the reason for the above-described experimental results may be that the limonene (in an oil form) added in a small amount (0.05% v/v) adsorbed to the yeast, causing fermentation inhibition. To remove limonene, which is a fermentation inhibitor, from a juice residue extract, limonene in a solid form, which accounts for 75% or larger of the total amount of limonene, must be removed, and limonene in a micelle form present as a light liquid (an oily substance) must also be removed. […] Therefore, fermentability tended to be unstable due to the influence of contamination etc. and it was difficult to maintain high fermentability over a long period of time.

## C=C(C)[C@H]1CC=C(C)CC1 [limonene]
  rate of ethanol production: about 20%
